Source: patent publication US20230331679A1, “NAPHTHALENE MONOIMIDE COMPOUNDS AND METHODS THEREOF” (JAWAHARLAL NEHRU CENTRE FOR ADVANCED SCIENTIFIC RESEARCH, priority 2020, published 2023)

Assays:
Aβ42 = biological target: T1, Aβ42 (Homo sapiens, UniProt P05067); assay: ThT binding assay, inhibition of Aβ42 fibrillar assembly; type: biochemical; settings: for inhibitory effect on Aβ42 aggregation (ThT NFI at 482 nm): 1:1 molar ratio, 10 µM Aβ42, 10 µM inhibitor, 72 h; for decrease in the formation of Aβ aggregates: Aβ42/inhibitor 1:1, Aβ42 10 µM; for decrease in the formation of Aβ aggregates / Aβ aggregation decreased to: third day of incubation
T1 construct: commercially available β-amyloid peptide (1-42), human; purchased marck (so in the source) PP69-.025 mg
T1 sequence (P05067 672-713 limits assumed): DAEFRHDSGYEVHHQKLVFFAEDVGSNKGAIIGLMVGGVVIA
Method: (§1) Monomeric form of Aβ42 peptide was prepared by dissolving 0.25 mg of commercially available β-amyloid peptide (1-42), human (cat: PP69-.025 mg), marck peptide in 250 µL of hexafluoro-2-propanol (HFIP) solvent to obtain a Aβ42 solution. This solution was incubated at room temperature for 1 hour, further to which the HFIP solvent was removed by nitrogen gas flow to obtain the monomeric Aβ42 peptide. To prepare a fibrillar sample of Aβ42 peptide, 0.025 mg of Aβ42 peptide was dissolved in […] of PBS buffer (pH = 7.4; contains 2% of DMSO or 100 mM NaOH) to obtain a monomeric Aβ42 solution and the peptide concentration in this solution was calculated through UV-Visible absorbance studies (ε = 1450 cm^-1 M^-1). The Aβ42 monomeric solution was incubated for 5 days in PBS buffer (pH = 7.4) to allow for the full phase formation of Aβ42 fibrils. The presence of Aβ42 fibrils was further confirmed by ThT assay.
Initially, the ability of the prepared NMI compounds, TGR63-68 to inhibit Aβ42 fibrillar assembly at 1:1 molar ratio with Aβ42 fibrils was evaluated using thioflavin (ThT) binding assay. 10 µM of Aβ42 fibrils in the absence (Ctrl) and the presence of 10 µM of inhibitors individually were incubated for 72 h. A normalized data for fluorescence intensity (NFI) of ThT at 482 nm (λex = 442 nm) was measured as represented in FIG. 1(a).
(§2) The ability of NMI compounds (TGR63, TGR64 and TGR65) to prevent Aβ42 fibrillar assembly (inhibition) and to break down the preformed fibrils (dissolution) was evaluated using thioflavin (ThT) binding assay. Aβ42 fibrils at a concentration of 10 µM and its aggregates, were used to study the effect of NMI compounds (TGR63, TGR64 and TGR65) at varying concentrations on both inhibition and dissolution assays. For the inhibition assay, all the NMI compounds (TGR63, TGR64 and TGR65) were added independently to Aβ peptide (10 µM) at 0 h of the experiment, whereas for the aggregates dissolution assay they were added to Aβ42 fibrillar aggregates grown for 2 days. Upon incubating for a predetermined period, Aβ42 inhibitor samples were analyzed using ThT by measuring the fluorescence change at 485 nm as presented in FIG. 1(b) and FIG. 1(c), wherein the error bars represent the standard deviation (SD) of the fluorescence measurement. Fluorescence values were normalized to maximal fluorescence intensity at 485 nm compared to that of the control (Aβ42 with no inhibitor). Experiments were performed at various stoichiometric ratios (Aβ42/inhibitor) of 1:1, 1:2, and 1:5 with a fixed concentration of Aβ42 at 10 µM. Each experiment was repeated three times (n = 3). […] TGR 63 recorded 80% dissolution efficiency while TGR 64 and TGR 65 recorded 75% and 78% dissolution efficiency respectively, for the stoichiometric ratio of 1:5.

PC12 cells = assay: Rescue of PC12 cells from Aβ42 toxicity (MTT cell viability assay); settings: for viability at 40 µM: Rattus norvegicus, PC-12, 24 h, read-out: cell viability, PC12 cells, Aβ42 20 µM + compound 40 µM, 24 h; for enhancement in the viability of cells from Aβ toxicity: versus Aβ42 alone (54%)
Method: A 96-well plate was used to culture the cells (15,000 per well) with RPMI media (10% fetal bovine serum (FBS), 5% horse serum (HS,), and 1% pen-strep (PS)) at 37° C. temperature in a 5% CO2 atmosphere. Then the media was exchanged with low serum (2% FBS) media and monomeric Aβ42 was added in the absence and presence of NMI compounds and incubated for 24 h.
The structure-activity relationship (SAR) of NMI compounds towards rescuing PC12 cells from Aβ toxicity was investigated. […] Each experiment was repeated three times (n = 3), and error bars represent the standard deviation (SD).
An Alzheimer’s disease-like environment was mimicked by exposing the cultured PC12 cells to 20 µM of Aβ42 fibrils, which formed cytotoxic aggregation species in the growth media.

[1] = biological target: T2, Aβ42 fibrillar aggregates (Homo sapiens, UniProt P05067); assay: ThT binding assay, dissolution of preformed Aβ42 fibrils; type: biochemical; settings: after sixth day of incubation
T2 construct: commercially available β-amyloid peptide (1-42), human; purchased marck (so in the source) PP69-.025 mg
T2 sequence (P05067 672-713 limits assumed): as above
Method: as §1, §2

α-Syn = α-Syn (Homo sapiens, UniProt P37840); assay: ThT binding assay, α-Syn aggregation inhibition; type: biochemical
Source text: Parkinson’s disease (PD) is a neuronal disorder, mainly affects the motor system. α-Syn is a presynaptic neuronal protein that is linked neuropathologically to PD plays a vital role in the pathogenesis in a number of ways. Self-aggregation of α-Syn to form fibrillar aggregates and these toxic species mediate disruption of cellular homeostasis and cause neuronal death. These toxic aggregates affect various intracellular targets, especially synaptic function. In this context, NMI compounds of the present disclosure were used to study the possible modulation of α-Syn aggregation. The effect of NMI compounds (TGR63 and TGR64) on α-syn (100 µM) aggregation inhibition was studied through ThT binding assay. Experiments were performed at stoichiometric ratios (α-Syn:inhibitor) of 1:1, 1:2, and 1:5 with the fixed concentration of α-Syn at 100 µM.

Structure (SMILES)	inhibitory effect on Aβ42 aggregation (ThT NFI at 482 nm) (Aβ42)	decrease in the formation of Aβ aggregates (Aβ42)	Aβ aggregation decreased to (Aβ42; Aβ42/inhibitor 1:2, Aβ42 10 µM) [%]	Aβ aggregation decreased to (Aβ42; Aβ42/inhibitor 1:5, Aβ42 10 µM) [%]	dissolution efficiency ([1]; Aβ42/inhibitor 1:1, Aβ42 10 µM)	dissolution efficiency ([1]; Aβ42/inhibitor 1:2, Aβ42 10 µM)	dissolution efficiency ([1]; Aβ42/inhibitor 1:5, Aβ42 10 µM) [%]	decrease in the formation of α-Syn aggregates (α-Syn; α-Syn:inhibitor 1:1, α-Syn 100 µM)	α-Syn aggregation decreased to (α-Syn; α-Syn:inhibitor 1:2, α-Syn 100 µM) [%]	α-Syn aggregation decreased to (α-Syn; α-Syn:inhibitor 1:5, α-Syn 100 µM) [%]	cell viability (PC12 cells; PC12 cells, Aβ42 20 µM + compound 40 µM, 24 h, Aβ42 alone 54%, untreated 100%) [%]	viability at 40 µM (PC12 cells; Aβ42 alone 54%, untreated 100%) [%]	enhancement in the viability of cells from Aβ toxicity (PC12 cells; PC12 cells)
CN(C)c1ccc(C#Cc2ccc3c4c(cccc24)C(=O)N(CCN)C3=O)cc1 [TGR64, 2-(2-aminoethyl)-6-((4-(dimethylamino)phenyl)ethynyl)-1H-benzo[de]isoquinoline-1,3(2H)-dione]	~38%	~ 50%	75	90	~ 35%	~ 50%	75	~ 54%	72	77	76	78	–
CN(C)c1ccc(C#Cc2ccc3c4c(cccc24)C(=O)N(CCOCCO)C3=O)cc1 [TGR65, 6-((4-(dimethylamino)phenyl)ethynyl)-2-(2-(2-hydroxyethoxy)ethyl)-1H-benzo[de]isoquinoline-1,3(2H)-dione]	~25%	~ 50%	75	90	~ 35%	~ 50%	78	–	–	–	–	62	–
C[N+](C)(C)CCN1C(=O)c2cccc3cccc(c23)C1=O [TGR66, 2-(1,3-dioxo-1H-benzo[de]isoquinolin-2(3H)-yl)-N,N,N-trimethylethan-1-aminium]	~ 10%	–	–	–	–	–	–	–	–	–	–	–	~ 26%

Continued, in another order:

inhibitory effect on Aβ42 aggregation (ThT NFI at 482 nm) (Aβ42)	decrease in the formation of Aβ aggregates (Aβ42)	Aβ aggregation decreased to (Aβ42; Aβ42/inhibitor 1:2, Aβ42 10 µM) [%]	Aβ aggregation decreased to (Aβ42; Aβ42/inhibitor 1:5, Aβ42 10 µM) [%]	dissolution efficiency ([1]; Aβ42/inhibitor 1:1, Aβ42 10 µM)	dissolution efficiency ([1]; Aβ42/inhibitor 1:2, Aβ42 10 µM)	dissolution efficiency ([1]; Aβ42/inhibitor 1:5, Aβ42 10 µM) [%]	decrease in the formation of α-Syn aggregates (α-Syn; α-Syn:inhibitor 1:1, α-Syn 100 µM)	α-Syn aggregation decreased to (α-Syn; α-Syn:inhibitor 1:2, α-Syn 100 µM) [%]	α-Syn aggregation decreased to (α-Syn; α-Syn:inhibitor 1:5, α-Syn 100 µM) [%]	Structure (SMILES)	cell viability (PC12 cells; PC12 cells, Aβ42 20 µM + compound 40 µM, 24 h, Aβ42 alone 54%, untreated 100%) [%]	viability at 40 µM (PC12 cells; Aβ42 alone 54%, untreated 100%) [%]	enhancement in the viability of cells from Aβ toxicity (PC12 cells; PC12 cells)
~7%	–	–	–	–	–	–	–	–	–	CN(C)c1ccc2c3c(cccc13)C(=O)N(CC[N+](C)(C)C)C2=O [TGR67, 2-(6-(dimethylamino)-1,3-dioxo-1H-benzo[de]isoquinolin-2(3H)-yl)-N,N,N-trimethylethan-1-aminium]	–	–	~22%
~5%	–	–	–	–	–	–	–	–	–	C[N+](C)(C)CCN1C(=O)c2cccc3c(C#Cc4ccccc4)ccc(c23)C1=O [TGR68, 2-(1,3-dioxo-6-(phenylethynyl)-1H-benzo[de]isoquinolin-2(3H)-yl)-N,N,N-trimethylethan-1-aminium]	–	–	~8%
